Where “and” joins values, the source holds several entries; their conditions need not be identical. Equal entries are not always repeated.
How the values were obtained:
[1] = at 64 MHz; cited from earlier work
[2] = T1 measurement and relaxivity of agents in solution, MR phantoms at 4.7T, 200 MHz; format: physicochemical; settings: nanopure water, per Gd
Description: In experiments conducted during the course of development of the present invention, MR phantoms were imaged using a 4.7T, 200 MHz Bruker Biospec MR Imager with decreasing concentrations of 5, 6 and Gd-DOTA as indicated in FIG. 2A. T1 measurements were obtained and relaxivities were calculated for each compound using the T1 data. Relaxivities for 5, 6 and Gd-DOTA were calculated to be 5.3, 5.1, and 1.0 mM^−1 s^−1 at 200 MHz respectively. At high magnetic field strengths there remained a 5 fold increase in relaxivity per Gd(III) which indicated a 31-37 fold increase in molecular relaxivity.
6, 5 and DOTA-Gd were dissolved in nanopure water at decreasing concentrations and imaged in 1 mm capillary tubes. Concentrations (μM) were as follows from left to right for 6 (73.3, 54.9, 36.6, 22.0, 11.0, 0.0) for 5 (82.1, 61.6, 41.0, 24.6, 12.3, 0.0) and for DOTA-Gd (82.7, 62.0, 41.4, 24.8, 12.4, 0.0). T1 weighted (TR/TE=300/18.3 ms) spin-echo images were acquired at 200 MHz. […]
T1 values were determined using the following equation.
Where SI is the measured signal intensity for each TR, S0 is the signal intensity at infinity.
Relaxivities for each compound were calculated using the T1 data and gadolinium concentrations as determined by ICP-MS analysis. […]

[3] = system: NIH-3T3 cells; assay: T1 measurement from T1 weighted cell pellet images of labeled cells; format: cell-based, mouse; settings: NIH-3T3 cell pellets, 4 hours incubation
Description: In experiments conducted during the course of development of the present invention, 5 and 6 were used to label cells for MR imaging at equal molar concentrations of Gd(III) (FIG. 2B). […] NIH-3T3 cells were incubated for 4 hours at 37° C. and 5% CO2 in complete media containing 5, 6, and Gd-DOTA. The cells were rinsed 3 times in phosphate buffered saline and pelleted in 1 mm capillary tubes. Unlabeled cell pellets were used as a control. T1 values measured for 5, 6, Gd-DOTA and the control cell pellet were 2067.7, 2178.4, 3009.4, and 3480.3 msec respectively. […] Cell studies were done using NIH-3T3 cells cultured in Dulbecco's Modified Eagle's Media supplemented in 10% calf bovine serum and incubated at 37° C., 5% CO2. Cells were incubated with approximately equimolar concentrations of Gd for 4 hours in a 6 well plate. The cells were rinsed 2× with PBS and trypsinized. In 1.5 mL tubes, the cells were fixed for 15 min in 10% buffered neutral formalin and rinsed 2× in PBS. The cells were then pelleted in flame sealed 1 mm capillary tubes. T1 weighted (TR/TE=800/18.3 ms) spin-echo images were acquired at 200 MHz. T1 measurements were obtained by collecting a series of images using a standard spin-echo sequence with a TE of […] and a series of TR (91.5, 200, 300, 400, 500, 750, 1200, 2500, 5000, 10000), 6 signal averages, FOV 2×2 cm, collected into a matrix of 256×128.

| Relaxivity (linear regression of 1/T1 vs. Gd concentration) [2] | SMILES | relaxivity [1] | T1 ([3]; approximately equimolar Gd(III) (7.80, 8.95, 9.00 mM Gd), 200 MHz) | % difference from control (T1) ([3]; vs unlabeled control pellet) |
| --- | --- | --- | --- | --- |
|  | CNC[C@H](O)[C@@H](O)[C@H](O)[C@H](O)CO.O=C([O-])CN1CCN(CC(=O)[O-])CCN(CC(=O)O)CCN(CC(=O)[O-])CC1.[Gd+3] [Dotarem] | 3.4 mM⁻¹ s⁻¹ |  |  |
| 1.0 mM⁻¹ s⁻¹ | O=C([O-])CN1CCN(CC(=O)[O-])CCN(CC(=O)O)CCN(CC(=O)[O-])CC1.[Gd+3] [Gd-DOTA] |  | 3009.4 ms and 3009.44 ms | 13.53% |

Reference: patent publication US20090196829A1, “MRI CONTRAST AGENTS AND RELATED METHODS OF USE” (Northwestern University, priority 2008, published 2009)
